Source: patent publication US6905680B2, “Methods of treating HIV infected subjects” (Genetics Institute, Inc., priority 1994, dated 2005)

What was measured:
[1] = tested on: CD28-induced IL-2 production; details: cited from earlier work
CD4^+ T cells [2] = test: Long term growth of CD4+ T cells with coated beads (Example 19); assay type: cell-based, human; details: CD4 and CD8^+ T cells
Procedure: CD28^+ T cells were divided into the CD4 and CD8^+ T cell subsets as described in Example 13. […] No cytokine or feeder cells were added to these cultures, and the cultures were maintained as described in Example 1.

CD4^+ T cells [3] = test: Lymphokine production by CD4+ T cells (Table 4); assay type: cell-based, human
Text: (§1) To assess whether distinct T cell subsets might differentially respond to B7-1 or B7-2, CD28^+ T cells were divided into CD28^+CD4^+ and CD28^+CD8^+cells and into CD4^+CD45RO^+ and CD4^+CD45RA+subsets. To obtain CD28^+CD4^+ or CD28^+CD8^+ T cells, the CD28^+ T cells were subjected to a second round of negative selection using magnetic beads (Dynal) coated with CD8 or CD4 mAb as described in June et al. (1989) J. Immunol. 143:153. CD4^+CD45RO^+ and CD4^+CD45RA^+ subpopulations were isolated by subjecting CD28^+ T cells to negative selection using magnetic beads and anti-CD45RO monoclonal antibody UCHL1 or anti-CD45RA monoclonal antibody ALB11 (Immuntech). […]

CD28^+ T cells = test: Lymphokine production by CD28+ T cells, ELISA 24 h (Table 3); assay type: cell-based, human; details: no CHO cells
Procedure: All values were assessed by using dilutions of culture supernatant that yielded read-outs within the linear portion of the standard curve. The cytokine production data is summarized below in Table 3.

CD8^+ T cells = test: Lymphokine production by CD8+ T cells (Table 4); assay type: cell-based, human
Text: as §1

human CD28 = target: T1, human CD28 (human, UniProt P10747 19-220); test: immunofluorescence on Jurkat cells (CD28+ CTLA4-)
T1 construct: whole, on cells; also called CD28 on CHO-hh (CHO-HH) cells; CD28 on Jurkat #7 cells

In the case of CO[C@H]1[C@@H](OC)C[C@H](C)[C@@H](OC)C2=CC(=O)C=C(NC(=O)/C(C)=C/C=C\[C@H](OC)[C@@H](OC(N)=O)/C(C)=C/[C@@H]1C)C2=O [herbimycin A], the “effect on CD28-induced IL-2 production” value [1] is listed as “can inhibit”.

In the case of OKT3 only: beads coated with OKT3 alone, the “time to death of the cells” value (CD4^+ T cells [2]) is reported as at most 1 week.

Work on “αCD3 only: plastic immobilized anti-CD3 mAb (OKT3) alone” yielded a GM-CSF (CD4^+ T cells [3]) of 9770 pg/mL, an IFN-γ (CD4^+ T cells [3]) of 1270 pg/mL and an IL-2 (CD4^+ T cells [3]) of 93 pg/mL. It also gave a GM-CSF (CD28^+ T cells) of 280 pg/mL, an IFN-γ (CD28^+ T cells) of 280 pg/mL and an IL-2 (CD28^+ T cells) of under 60 pg/mL. The IL-4 (CD28^+ T cells) was under 20 pg/mL, the TNFα (CD28^+ T cells) was 380 pg/mL and the GM-CSF (CD8^+ T cells) was 8900 pg/mL. It also gave an IFN-γ (CD8^+ T cells) of 1620 pg/mL and an IL-2 (CD8^+ T cells) of 133 pg/mL.

B1: human B7-2Ig fusion protein (Fc fusion)
chain: APLKIQAYFNETADLPCQFANSQNQSLSELVVFWQDQENLVLNEVYLGKEKFDSVHSKYMGRTSFDSDSWTLRLHNLQIKDKGLYQCIIHHKKPTGMIRIHQMNSELSVLANFSQPEIVPISNITENVYINLTCSSIHGYPEPKKMSVLLRTKNSTIEYDGIMQKSQDNVTELYDVSISLSVSFPDVTSNMTIFCILETDKTRLLSSPFSIELEDPQPPPDH
notes: not shown: Fc portion of human IgG1
B1: binds (human CD28).
